Measurements as given in PubChem BioAssay AID248 (DTP/NCI, 2004).
Several values for one entry are separate records, joined by “and”; a condition that tells them apart may be missing. Identical values can stand only once. Inconclusive results and toxic doses are left out. Rule as the data show it: active = T/C of 150% or more; inactive = T/C below 125%.

Tested on: L1210 leukemia ip in BDF1 mice, survival T/C
Experiment: NCI In Vivo Anticancer Drug Screen. Data for tumor model L1210 Leukemia (intraperitoneal) in B6D2F1 (BDF1) mice
Details: endpoint: mean survival time, higher = longer survival
Method in brief: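 Read-out is survival time, reported as the treated-group measurement over the vehicle-control measurement.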

[1] = dose: 100.0 mg/kg/injection, schedule: Q01DX009 (ip), vehicle: saline with Tween-80
[2] = dose: 100.0 mg/kg/injection, schedule: Q04DX003 (ip), vehicle: saline with Tween-80
[3] = dose: 200.0 mg/kg/injection, schedule: Q01DX009 (ip), vehicle: saline with Tween-80
[4] = dose: 200.0 mg/kg/injection, schedule: Q04DX003 (ip), vehicle: saline with Tween-80
[5] = dose: 400.0 mg/kg/injection, schedule: Q04DX003 (ip), vehicle: saline with Tween-80
[6] = dose: 100.0 mg/kg/injection, schedule: Q01DX001 (ip), vehicle: Klucel (hydroxypropylcellulose) (HPC)
[7] = dose: 200.0 mg/kg/injection, schedule: Q01DX001 (ip), vehicle: Klucel (hydroxypropylcellulose) (HPC)
[8] = dose: 100.0 mg/kg/injection, schedule: Q04DX002 (ip), vehicle: Klucel (hydroxypropylcellulose) (HPC)
[9] = dose: 200.0 mg/kg/injection, schedule: Q04DX002 (ip), vehicle: Klucel (hydroxypropylcellulose) (HPC)
[10] = dose: 400.0 mg/kg/injection, schedule: Q04DX002 (ip), vehicle: Klucel (hydroxypropylcellulose) (HPC)
[11] = dose: 100.0 mg/kg/injection, schedule: Q01DX001 (ip), vehicle: carboxymethylcellulose (CMC)
[12] = dose: 200.0 mg/kg/injection, schedule: Q01DX001 (ip), vehicle: carboxymethylcellulose (CMC)
[13] = dose: 400.0 mg/kg/injection, schedule: Q01DX001 (ip), vehicle: carboxymethylcellulose (CMC)
[14] = dose: 100.0 mg/kg/injection, schedule: Q04DX003 (ip), vehicle: Klucel (hydroxypropylcellulose) (HPC)
[15] = dose: 200.0 mg/kg/injection, schedule: Q04DX003 (ip), vehicle: Klucel (hydroxypropylcellulose) (HPC)

Measured: T/C

O=[N+]([O-])c1ccc(-c2ccc(Br)cc2)cc1
inactive: [1] 100 % of control | [2] 101 % of control | [3] 86 % of control | [4] 94 % of control | [5] 103 % of control

Cc1cc(OC(=O)Nc2ccccc2)ccc1Cl
inactive: dose: 100.0 mg/kg/injection, schedule: Q04DX002 (ip), vehicle: saline + alcohol 100 % of control | dose: 200.0 mg/kg/injection, schedule: Q04DX002 (ip), vehicle: saline + alcohol 100 % of control | dose: 400.0 mg/kg/injection, schedule: Q04DX002 (ip), vehicle: saline + alcohol 96 % of control

Cc1ccc(S(=O)(=O)NC(=S)Nc2ccccc2)cc1
inactive: dose: 50.0 mg/kg/injection, schedule: Q01DX001 (ip), vehicle: saline 98 % of control | dose: 50.0 mg/kg/injection, schedule: Q01DX009 (ip), vehicle: saline 102 % of control | dose: 100.0 mg/kg/injection, schedule: Q01DX001 (ip), vehicle: saline 101 % of control | dose: 100.0 mg/kg/injection, schedule: Q01DX009 (ip), vehicle: saline 95 % of control | dose: 200.0 mg/kg/injection, schedule: Q01DX001 (ip), vehicle: saline 101 % of control | dose: 200.0 mg/kg/injection, schedule: Q01DX009 (ip), vehicle: saline 109 % of control

Nc1c(Cl)cc(Cl)c(-c2c(Cl)cc(Cl)c([N+](=O)[O-])c2Cl)c1Cl
inactive: [6] 106 % of control | [7] 101 % of control | dose: 400.0 mg/kg/injection, schedule: Q01DX001 (ip), vehicle: Klucel (hydroxypropylcellulose) (HPC) 95 % of control

O=C(/C=C\c1ccccc1)OCc1ccccc1CN1C=CCC1
inactive: [8] 86 % of control | [9] 104 % of control | [10] 86 % of control

O=C1NC(=O)C2C3C(C(O)(c4ccccc4)c4ccccn4)=CC(/C3=C(\c3ccccc3)c3ccccn3)C12 (stereo unspecified)
inactive: dose: 0.5 mg/kg/injection, schedule: Q01DX010 (ip), vehicle: saline 101 % of control | dose: 1.0 mg/kg/injection, schedule: Q01DX010 (ip), vehicle: saline 93 % of control | dose: 2.0 mg/kg/injection, schedule: Q01DX010 (ip), vehicle: saline 101 % of control | dose: 2.0 mg/kg/injection, schedule: Q01DX010 (oral), vehicle: saline 96 % of control | dose: 4.0 mg/kg/injection, schedule: Q01DX010 (ip), vehicle: saline 93 % of control | dose: 4.0 mg/kg/injection, schedule: Q01DX010 (oral), vehicle: saline 96 % of control | dose: 8.0 mg/kg/injection, schedule: Q01DX010 (oral), vehicle: saline 96 % of control | dose: 16.0 mg/kg/injection, schedule: Q01DX010 (oral), vehicle: saline 96 % of control | [11] 98 % of control | [12] 102 % of control | [13] 104 % of control

COC(=O)/C=C/C(=O)O
inactive: dose: 75.0 mg/kg/injection, schedule: Q01DX001 (ip), vehicle: carboxymethylcellulose (CMC) 86 % of control

CCOC(=O)C(CCC#N)(CCC#N)C(C)=O
inactive: [14] 105 % of control | [15] 94 % of control

Nc1ccc(S(=O)(=O)Nc2ccccn2)cc1
inactive: [8] 102 % of control | [9] 98 % of control | [10] 98 % of control

O=C(Oc1ccccc1)c1ccc2[nH]c(=O)c(C(=O)O)nc2c1
inactive: dose: 25.0 mg/kg/injection, schedule: Q01DX001 (ip), vehicle: saline with Tween-80 96 % of control | dose: 50.0 mg/kg/injection, schedule: Q01DX001 (ip), vehicle: saline with Tween-80 100 % of control | dose: 100.0 mg/kg/injection, schedule: Q01DX001 (ip), vehicle: saline with Tween-80 98 % of control

ONC12CC3CC(CC(C3)C1)C2
inactive: dose: 12.5 mg/kg/injection, schedule: Q01DX009 (ip), vehicle: Klucel (hydroxypropylcellulose) (HPC) 98 % of control | dose: 25.0 mg/kg/injection, schedule: Q01DX009 (ip), vehicle: Klucel (hydroxypropylcellulose) (HPC) 95 % of control | dose: 50.0 mg/kg/injection, schedule: Q01DX009 (ip), vehicle: Klucel (hydroxypropylcellulose) (HPC) 95 % of control | [6] 97 % of control

O=c1oc(-c2ccccc2)nc2cc(Cl)ccc12
inactive: dose: 25.0 mg/kg/injection, schedule: Q04DX003 (ip), vehicle: saline with Tween-80 104 % of control | dose: 50.0 mg/kg/injection, schedule: Q04DX003 (ip), vehicle: saline with Tween-80 92 % of control | [1] 90 % of control | [2] 96 % of control and 103 % of control and 88 % of control | [3] 87 % of control | [4] 98 % of control | dose: 400.0 mg/kg/injection, schedule: Q01DX009 (ip), vehicle: saline with Tween-80 92 % of control | [5] 90 % of control

CN(N=O)C(=O)NCCCl
inactive: dose: 0.36 mg/kg/injection, schedule: Q01DX Z (ip), vehicle: carboxymethylcellulose (CMC) 104 % of control | dose: 0.78 mg/kg/injection, schedule: Q01DX Z (ip), vehicle: carboxymethylcellulose (CMC) 95 % of control | dose: 1.56 mg/kg/injection, schedule: Q01DX Z (ip), vehicle: carboxymethylcellulose (CMC) 98 % of control | dose: 3.12 mg/kg/injection, schedule: Q01DX Z (ip), vehicle: carboxymethylcellulose (CMC) 102 % of control | dose: 6.25 mg/kg/injection, schedule: Q01DX Z (ip), vehicle: carboxymethylcellulose (CMC) 102 % of control | dose: 12.5 mg/kg/injection, schedule: Q01DX001 (ip), vehicle: Klucel (hydroxypropylcellulose) (HPC) 103 % of control | dose: 12.5 mg/kg/injection, schedule: Q01DX Z (ip), vehicle: carboxymethylcellulose (CMC) 101 % of control | dose: 25.0 mg/kg/injection, schedule: Q01DX001 (ip), vehicle: Klucel (hydroxypropylcellulose) (HPC) 103 % of control | dose: 25.0 mg/kg/injection, schedule: Q01DX Z (ip), vehicle: carboxymethylcellulose (CMC) 104 % of control | dose: 75.0 mg/kg/injection, schedule: Q01DX Z (ip), vehicle: carboxymethylcellulose (CMC) 119 % of control | [7] 118 % of control

Cc1ccc2c(ccc(/C=C/c3ccc(O)c4ncccc34)[n+]2C)c1
inactive: dose: 22.0 mg/kg/injection, schedule: Q01DX009 (ip), vehicle: Klucel (hydroxypropylcellulose) (HPC) 115 % of control | dose: 33.0 mg/kg/injection, schedule: Q01DX009 (ip), vehicle: Klucel (hydroxypropylcellulose) (HPC) 117 % of control | [11] 108 % of control | [12] 124 % of control | [15] 98 % of control | [13] 124 % of control

O=C1C=C(c2ccccc2)C(c2ccccc2)C1O (stereo unspecified)
inactive: dose: 75.0 mg/kg/injection, schedule: Q01DX001 (ip), vehicle: other 102 % of control | dose: 150.0 mg/kg/injection, schedule: Q01DX001 (ip), vehicle: other 97 % of control

O=[N+]([O-])c1ccc(CSCc2ccc(Cl)cc2)cc1
inactive: [11] 97 % of control | [12] 97 % of control | [13] 94 % of control

CCCCCCCCC(O)CC (stereo unspecified)
inactive: dose: 100.0 mg/kg/injection, schedule: Q01DX009 (ip), vehicle: Klucel (hydroxypropylcellulose) (HPC) 93 % of control and 96 % of control | [14] 103 % of control | dose: 200.0 mg/kg/injection, schedule: Q01DX009 (ip), vehicle: Klucel (hydroxypropylcellulose) (HPC) 96 % of control | [15] 97 % of control | dose: 400.0 mg/kg/injection, schedule: Q01DX009 (ip), vehicle: Klucel (hydroxypropylcellulose) (HPC) 92 % of control and 105 % of control | dose: 400.0 mg/kg/injection, schedule: Q04DX003 (ip), vehicle: Klucel (hydroxypropylcellulose) (HPC) 97 % of control

OCCCCCc1ccccc1
inactive: dose: 100.0 mg/kg/injection, schedule: Q01DX009 (ip), vehicle: other 105 % of control | dose: 100.0 mg/kg/injection, schedule: Q04DX003 (ip), vehicle: saline 92 % of control | dose: 200.0 mg/kg/injection, schedule: Q01DX009 (ip), vehicle: other 102 % of control | dose: 200.0 mg/kg/injection, schedule: Q04DX003 (ip), vehicle: saline 101 % of control | dose: 400.0 mg/kg/injection, schedule: Q01DX009 (ip), vehicle: other 102 % of control | dose: 400.0 mg/kg/injection, schedule: Q04DX003 (ip), vehicle: saline 90 % of control
